# According to PubChem BioAssay AID743500 (The Scripps Research Institute Molecular Screening Center, 2014):
# Active and inactive are the calls of the source. How the calls were made is not given here.
# System: CCHFV L protein vOTU protease domain (Crimean-Congo hemorrhagic fever virus)
# Test: CCHFV vOTU inhibition, late-stage follow-up, biochemical, fluorescence, Ub-AMC substrate, assay provider (AID 743500)
# Conditions: Recombinant vOTU, Ub-AMC cleavage fluorescence, stronger effect = higher value
smiles,measurement,setting,value
O=C1C=C(Nc2ccccc2)c2ccccc2C1=O,inhibition,at 15.55 µM,80.2%
NS(=O)(=O)c1ccc(NC(=O)COC(=O)c2ccc([N+](=O)[O-])s2)cc1,inhibition,at 29.01 µM,42.6%
CCc1cc[n+](C2=C(NS(=O)(=O)c3cccs3)C(=O)c3ccccc3C2=O)cc1,inhibition,at 14.16 µM,18.8% (inactive)
CC1COCC(C)N1C1=C(Cl)C(=O)c2ccccc2C1=O (stereo not drawn),inhibition,at 14.67 µM,23.4%
O=c1[nH]c(Nc2ccccc2)cc2cc(Br)ccc12,inhibition,at 1.45 µM,15.8% (inactive)
Cc1ccc(N2C(=O)[C@@H]3[C@H](C2=O)C2c4ccccc4C=CN2[C@@H]3C(=O)c2ccco2)cc1 (stereo partly drawn),inhibition,at 5.2 µM,41.3%
NS(=O)(=O)c1ccc(NC2=CC(=O)C(=O)c3ccccc32)cc1,inhibition,at 11.51 µM,71.8%
Nc1cc2c(cc1Br)[nH]c(=O)c1ccccc12,inhibition,at 4.57 µM,12.7% (inactive)
Cn1nc(-c2ccccn2)nc2c(=O)n(C)c(=O)nc1-2,inhibition,at 1.16 µM,94%
CCOC(=O)N=Nc1c2ccccc2c2nc3no[nH]c3nc12,inhibition,at 7.75 µM,26.4%
CC1CCCC(NC(=O)COC(=O)c2ccc([N+](=O)[O-])s2)C1C (stereo not drawn),inhibition,at 31.32 µM,22.6%
Cc1ccc2c(c1C)-c1c(ccc(C)c1C)C(=O)C2=O,inhibition,at 18.9 µM,66.2%
O=C(COC(=O)c1ccc([N+](=O)[O-])s1)Nc1ncc(C(F)(F)F)cc1Cl,inhibition,at 27.79 µM,42.1%
COc1ccccc1NC(=O)COC(=O)c1ccc([N+](=O)[O-])s1,inhibition,at 35.07 µM,53.8%
O=C(/C=C/c1ccc(O)cc1)c1ccc(NC2=C(N3CCCCC3)C(=O)c3ccccc3C2=O)cc1,inhibition,at 10.17 µM,41%
O=C(NC1=C(NC2CCS(=O)(=O)C2)C(=O)c2ccccc2C1=O)c1ccccc1 (stereo not drawn),inhibition,at 14.2 µM,49.8%
CCn1nc(/C=C/c2ccccc2)nc2c(=O)n(C)c(=O)nc1-2,inhibition,at 0.49 µM,99%
COC(CNC(=O)c1ccc2c3c(onc13)-c1ccccc1C2=O)OC,inhibition,at 24.19 µM,51.7%
CC1(C)C=C2C(=NN(c3ccccc3)C(N)=C2C#N)CO1,inhibition,at 23.49 µM,82.1%
Cc1ccc(NC2=CC(=O)C(=O)c3ccccc32)cc1,inhibition,at 12.24 µM,85.2%
O=C(c1ccco1)[C@@H]1[C@@H]2C(=O)N(c3ccc(Br)cc3)C(=O)[C@@H]2C2c3ccccc3C=CN21 (stereo partly drawn),inhibition,at 11.01 µM,79.7%
COc1ccc2noc3c2c1C(=O)c1ccccc1-3,inhibition,at 6.28 µM,12.4% (inactive)
COC1=C(N)C(=O)c2nc(C)ccc2C1=O,inhibition,at 4.98 µM,71.9%
COc1cc(Br)c(C(=O)c2nccc3cc(OC)c(OC)cc23)cc1OC,inhibition,at 1.13 µM,19.1% (inactive)
O=C(COC(=O)c1ccc([N+](=O)[O-])s1)Nc1ccc(F)cc1,inhibition,at 26.34 µM,45.3%
Cc1c(Cl)cnc(NC(=O)COC(=O)c2ccc([N+](=O)[O-])s2)c1Cl,inhibition,at 20.44 µM,55.3%
O=C(COC(=O)c1ccc([N+](=O)[O-])s1)NCc1ccc(F)cc1,inhibition,at 40.58 µM,41%
O=C(OCc1nnc(-c2ccccc2)o1)c1ccc([N+](=O)[O-])s1,inhibition,at 26.04 µM,55.6%
COc1cc(NC(=O)COC(=O)c2ccc([N+](=O)[O-])s2)cc(OC)c1OC,inhibition,at 21.72 µM,44.2%
O=C1Cc2ccccc2C(=O)N1Cc1ccccc1,inhibition,at 1.31 µM,49.6%
O=C(NC1=CC(=O)c2ccccc2C1=O)c1ccccc1,inhibition,at 12.37 µM,48.8%
O=C1Cc2ccccc2C(=O)N1,inhibition,at 0.6 µM,57.1%
NC1=C(Cl)C(=O)c2ccc(S(N)(=O)=O)cc2C1=O,inhibition,at 0.39 µM,63.1%
